The source of these data is ChEMBL document CHEMBL3832066, “DailyMed|setid=891194e8-7083-4438-8d27-c72f2372e40f | ISOSORBIDE MONONITRATE - isosorbide mononitrate tablet, extended release|Mckesson Contract Packaging”.

“And” between values parts separate entries of the source, which are not always exact repeats. Identical values can stand only once.

What all share (assay type): ADME, organism-based
Series [1] concerns Homo sapiens. Briefly: (§1) Pharmacokinetic parameters for Isosorbide mononitrate after single oral dose administration of 60 mg Isosorbide mononitrate solution or table to subjects. Details: dose 60 mg, route oral. The following applies: in vivo, po, dosed compound id 10, dosed compound name ISOSORBIDE MONONITRATE, regimen Single dose, tissue Plasma.
Series [2] can be described thus: as §1. Also noted: dose 60 mg, route oral. The following applies: human, in vivo, dosed compound id 10, dosed compound name ISOSORBIDE MONONITRATE, regimen Single dose, tissue Plasma.
Series [3] deals with Homo sapiens. In words: (§2) Pharmacokinetic parameters for Isosorbide mononitrate after multiple oral dose administrations of 60 and 120 mg Isosorbide mononitrate tablets to subjects. Details: dose 120 mg, dose 60 mg, route oral. The following applies: in vivo, po, dosed compound id 10, dosed compound name ISOSORBIDE MONONITRATE, regimen Multiple dose, tissue Plasma.
Series [4] can be described thus: as §2. Also noted: dose 120 mg, dose 60 mg, route oral. The following applies: human, in vivo; dose 60 mg, dosed compound id 10, dosed compound name ISOSORBIDE MONONITRATE, regimen Multiple dose, route oral, tissue Plasma.

In the case of `O=[N+]([O-])O[C@@H]1CO[C@H]2[C@@H]1OC[C@@H]2O` [ISOSORBIDE MONONITRATE], the CL/F in series [1] (dose 60 mg) was in the range of 120 to 122 mL/min; in series [2] (dose 60 mg, route oral), 151 to 187 mL/min; in series [3] (dose 120 mg) it was 119 to 140 mL/min; in series [4], 132 to 151 mL/min. The molecule further had a t1/2 in series [1] (dose 60 mg) of 4.8 to 5.1 h. Besides, the AUC was 8190 to 8310 ng·h/mL in series [1]; 5990 to 7450 ng·h/mL in series [2] (po, 60 mg); 6620 to 7560 ng·h/mL and 14200 to 16800 ng·h/mL in series [3]. Moreover, the Cmax was 424 to 541 ng/mL and 1240 to 1530 ng/mL in series [1]; 557 to 572 ng/mL and 1150 to 1180 ng/mL in series [3]. Further, the half-life in series [2] (dose 60 mg, route oral) is 378 to 396 min; in series [4], 372 to 378 min. Moreover, the Tmax in series [3] (dose 120 mg) fell in the range of 3.1 to 3.2 h; in series [4] it was 2.9 to 4.2 h.
